From ChEMBL document CHEMBL3885881, “DrugMatrix”

Species on record: Rattus norvegicus
Assay: DrugMatrix - Regimen: Daily Repeat
Format: toxicity, organism-based, Sprague-Dawley
Design: regimen Daily Repeat, gender Male, age 6-8 weeks
Settings: in vivo, po, route oral GAVAGE, vehicle 100 % WATER; for ABSOLUTE BASOPHIL / ABSOLUTE EOSINOPHIL / ABSOLUTE LYMPHOCYTE / ABSOLUTE MONOCYTE / ABSOLUTE SEGMENTED NEUTROPHIL / BASOPHIL / EOSINOPHIL / ERYTHROCYTE COUNT / HEMATOCRIT / HEMOGLOBIN / LEUKOCYTE COUNT / LYMPHOCYTE / MEAN CORPUSCULAR HEMOGLOBIN / MEAN CORPUSCULAR HEMOGLOBIN CONCENTRATION / MEAN CORPUSCULAR VOLUME / MONOCYTE / NEUTROPHIL / NUCLEATED RED BLOOD CELLS / PLATELET COUNT: tissue Blood; for ALANINE AMINOTRANSFERASE / ALBUMIN / ALKALINE PHOSPHATASE / ASPARTATE AMINOTRANSFERASE / BLOOD UREA NITROGEN / CARBON DIOXIDE / CHLORIDE / CHOLESTEROL / CREATINE PHOSPHOKINASE / CREATININE / GLUCOSE / LACTATE DEHYDROGENASE / LIPASE / PHOSPHORUS / POTASSIUM / SODIUM / TOTAL BILIRUBIN / TOTAL PROTEIN / URIC ACID: tissue Plasma
[1] = 19.5 mg/kg, 120 h, dose level Low, time 5 day
[2] = 75 mg/kg, 72 h, dose level High, time 3 day
[3] = 75 mg/kg, 120 h, dose level High, time 5 day

CN1CCC[C@H]1c1cccnc1 [NICOTINE]
ABSOLUTE BASOPHIL [1]: 0 CELLS/uL
ABSOLUTE EOSINOPHIL [1]: 37.67 CELLS/uL
ABSOLUTE LYMPHOCYTE [1]: 10299.33 CELLS/uL
ABSOLUTE MONOCYTE [1]: 0 CELLS/uL
ABSOLUTE SEGMENTED NEUTROPHIL [1]: 1096.33 CELLS/uL
BASOPHIL [1]: 0%
EOSINOPHIL [1]: 0.33%
ERYTHROCYTE COUNT [1]: 5.67 x10E6/uL
HEMATOCRIT [1]: 35.63%
HEMOGLOBIN [1]: 14.17 G/DL
LEUKOCYTE COUNT [1]: 11.43 x10E3/uL
LYMPHOCYTE [1]: 90.33%
MEAN CORPUSCULAR HEMOGLOBIN [1]: 25 pg
MEAN CORPUSCULAR HEMOGLOBIN CONCENTRATION [1]: 39.77 G/DL
MEAN CORPUSCULAR VOLUME [1]: 62.83 fL
MONOCYTE [1]: 0%
NEUTROPHIL [1]: 9.33%
NUCLEATED RED BLOOD CELLS [1]: 0.33 /100WBC
PLATELET COUNT [1]: 1167.67 x10E3/uL
ALANINE AMINOTRANSFERASE [1]: 54.67 u/L
ALBUMIN [1]: 4.17 G/DL
ALKALINE PHOSPHATASE [1]: 397.33 u/L
ASPARTATE AMINOTRANSFERASE [1]: 83.67 u/L
BLOOD UREA NITROGEN [1]: 12 mg/dL
CARBON DIOXIDE [1]: 34.33 mmol/L
CHLORIDE [1]: 101 MEQ/L
CHOLESTEROL [1]: 62.33 mg/dL
CREATINE PHOSPHOKINASE [1]: 196.67 u/L
CREATININE [1]: 0.21 mg/dL
GLUCOSE [1]: 146.67 mg/dL
LACTATE DEHYDROGENASE [1]: 207.67 u/L
LIPASE [1]: 11.67 u/L
PHOSPHORUS [1]: 11.63 mg/dL
POTASSIUM [1]: 6.48 MEQ/L
SODIUM [1]: 143.9 MEQ/L
TOTAL BILIRUBIN [1]: 0.23 mg/dL
TOTAL PROTEIN [1]: 6.03 G/DL
URIC ACID [1]: 1.2 mg/dL
ABSOLUTE BASOPHIL [2]: 0 CELLS/uL
ABSOLUTE EOSINOPHIL [2]: 0 CELLS/uL
ABSOLUTE LYMPHOCYTE [2]: 13562.33 CELLS/uL
ABSOLUTE MONOCYTE [2]: 210.33 CELLS/uL
ABSOLUTE SEGMENTED NEUTROPHIL [2]: 827.33 CELLS/uL
BASOPHIL [2]: 0%
EOSINOPHIL [2]: 0%
ERYTHROCYTE COUNT [2]: 5.82 x10E6/uL
HEMATOCRIT [2]: 37.17%
HEMOGLOBIN [2]: 14.57 G/DL
LEUKOCYTE COUNT [2]: 14.6 x10E3/uL
LYMPHOCYTE [2]: 93%
MEAN CORPUSCULAR HEMOGLOBIN [2]: 25.03 pg
MEAN CORPUSCULAR HEMOGLOBIN CONCENTRATION [2]: 39.2 G/DL
MEAN CORPUSCULAR VOLUME [2]: 63.87 fL
MONOCYTE [2]: 1.33%
NEUTROPHIL [2]: 5.67%
NUCLEATED RED BLOOD CELLS [2]: 0.33 /100WBC
PLATELET COUNT [2]: 1370 x10E3/uL
ALANINE AMINOTRANSFERASE [2]: 58.67 u/L
ALBUMIN [2]: 4.07 G/DL
ALKALINE PHOSPHATASE [2]: 398 u/L
ASPARTATE AMINOTRANSFERASE [2]: 92 u/L
BLOOD UREA NITROGEN [2]: 11 mg/dL
CARBON DIOXIDE [2]: 25.67 mmol/L
CHLORIDE [2]: 101.33 MEQ/L
CHOLESTEROL [2]: 64 mg/dL
CREATINE PHOSPHOKINASE [2]: 288.33 u/L
CREATININE [2]: 0.13 mg/dL
GLUCOSE [2]: 150.33 mg/dL
LACTATE DEHYDROGENASE [2]: 290.67 u/L
LIPASE [2]: 10.33 u/L
PHOSPHORUS [2]: 11.73 mg/dL
POTASSIUM [2]: 6.07 MEQ/L
SODIUM [2]: 143.23 MEQ/L
TOTAL BILIRUBIN [2]: 0.17 mg/dL
TOTAL PROTEIN [2]: 5.73 G/DL
URIC ACID [2]: 1.6 mg/dL
ABSOLUTE BASOPHIL [3]: 0 CELLS/uL
ABSOLUTE EOSINOPHIL [3]: 0 CELLS/uL
ABSOLUTE LYMPHOCYTE [3]: 9380.67 CELLS/uL
ABSOLUTE MONOCYTE [3]: 97.67 CELLS/uL
ABSOLUTE SEGMENTED NEUTROPHIL [3]: 455 CELLS/uL
BASOPHIL [3]: 0%
EOSINOPHIL [3]: 0%
ERYTHROCYTE COUNT [3]: 6.33 x10E6/uL
HEMATOCRIT [3]: 38.6%
HEMOGLOBIN [3]: 15.23 G/DL
LEUKOCYTE COUNT [3]: 9.93 x10E3/uL
LYMPHOCYTE [3]: 94.33%
MEAN CORPUSCULAR HEMOGLOBIN [3]: 24.1 pg
MEAN CORPUSCULAR HEMOGLOBIN CONCENTRATION [3]: 39.5 G/DL
MEAN CORPUSCULAR VOLUME [3]: 61 fL
MONOCYTE [3]: 1%
NEUTROPHIL [3]: 4.67%
NUCLEATED RED BLOOD CELLS [3]: 0.33 /100WBC
PLATELET COUNT [3]: 1256.67 x10E3/uL
ALANINE AMINOTRANSFERASE [3]: 64.67 u/L
ALBUMIN [3]: 4.53 G/DL
ALKALINE PHOSPHATASE [3]: 383 u/L
ASPARTATE AMINOTRANSFERASE [3]: 91 u/L
BLOOD UREA NITROGEN [3]: 12.67 mg/dL
CARBON DIOXIDE [3]: 33 mmol/L
CHLORIDE [3]: 101.67 MEQ/L
CHOLESTEROL [3]: 71.67 mg/dL
CREATINE PHOSPHOKINASE [3]: 315 u/L
CREATININE [3]: 0.22 mg/dL
GLUCOSE [3]: 140.33 mg/dL
LACTATE DEHYDROGENASE [3]: 131.33 u/L
LIPASE [3]: 9.67 u/L
PHOSPHORUS [3]: 9.5 mg/dL
POTASSIUM [3]: 5.03 MEQ/L
SODIUM [3]: 147.7 MEQ/L
TOTAL BILIRUBIN [3]: 0.17 mg/dL
TOTAL PROTEIN [3]: 6.6 G/DL
URIC ACID [3]: 0.77 mg/dL
